# From patent US9469650B2, “Melampomagnolide B derivatives” (BOARD OF TRUSTEES OF THE UNIVERSITY OF ARKANSAS, priority 2013, dated 2016)
# Experiments:
# CCRF-CEM = experiment: panel of 60 human tumor cell lines, growth inhibition (Leukemia)
# SR = experiment: as above
# MDA-MB-435 = experiment: panel of 60 human tumor cell lines, growth inhibition (Melanoma)
# UACC-257 = experiment: as above
# UACC-62 = experiment: as above
# SF-268 = experiment: panel of 60 human tumor cell lines, growth inhibition (CNS Cancer)
# SF-539 = experiment: as above
# COLO 205 = experiment: panel of 60 human tumor cell lines, growth inhibition (Colon Cancer)
# HCT-15 = experiment: as above
# KM12 = experiment: as above
# A498 = experiment: panel of 60 human tumor cell lines, growth inhibition (Renal Cancer)
# RXF 393 = experiment: as above; conditions: for GI50: RXF 393, RXF 393; for Percent Growth: RXF 393
# MDA-MB-468 = experiment: panel of 60 human tumor cell lines, growth inhibition (Breast Cancer)
# OVCAR-5 = experiment: panel of 60 human tumor cell lines, growth inhibition (Ovarian Cancer)
# OVCAR-8 = experiment: as above
# HOP-92 = experiment: panel of 60 human tumor cell lines, growth inhibition (Non-Small Cell Lung Cancer); conditions: for Percent Growth: HOP-92; for GI50: HOP-92, HOP-92
# NCI-H322M = experiment: as above
smiles,measurement,setting,value
"C=C1C(=O)O[C@H]2[C@H]1CC/C(COC(=O)NCCc1ccccn1)=C\CC[C@@]1(C)O[C@@H]21 [JVM 61, ((1aR,7aS,10aS,10bS,E)-1a-methyl-8-methylene-9-oxo-1a,2,3,6,7,7a,8,9,10a,10b-decahydrooxireno[2′,3′:9,10]cyclodeca[1,2-b]furan-5-yl)methyl-(2-(pyridin-2-yl)ethyl)carbamate]",GI50,CCRF-CEM; Homo sapiens,2.65 µM
same,GI50,"CCRF-CEM; Homo sapiens, 5-dose assay",2.65 µM
same,CC50,"CCRF-CEM; Homo sapiens, read-out: LC50",> 100 µM
same,IC (TGI),"CCRF-CEM; Homo sapiens, read-out: TGI",8.59 µM
same,Percent Growth,CCRF-CEM; Log10 Concentration −4.0,−39%
same,Percent Growth,CCRF-CEM; Log10 Concentration −5.0,−6%
same,Percent Growth,CCRF-CEM; Log10 Concentration −6.0,91%
same,Percent Growth,CCRF-CEM; Log10 Concentration −7.0,100%
same,Percent Growth,CCRF-CEM; Log10 Concentration −8.0,104%
same,GI50,SR; Homo sapiens,4.1 µM
same,CC50,"SR; Homo sapiens, read-out: LC50",> 100 µM
same,IC (TGI),"SR; Homo sapiens, read-out: TGI",24.6 µM
same,Percent Growth,SR; Log10 Concentration −4.0,−34%
same,Percent Growth,SR; Log10 Concentration −5.0,22%
same,Percent Growth,SR; Log10 Concentration −6.0,95%
same,Percent Growth,SR; Log10 Concentration −7.0,100%
same,Percent Growth,SR; Log10 Concentration −8.0,99%
same,GI50,"MDA-MB-435; Homo sapiens, MDA-MB-435",6.01 µM
same,CC50,"MDA-MB-435; Homo sapiens, MDA-MB-435, read-out: LC50",82.4 µM
same,IC (TGI),"MDA-MB-435; Homo sapiens, MDA-MB-435, read-out: TGI",24.7 µM
same,Percent Growth,"MDA-MB-435; MDA-MB-435, Log10 Concentration −4.0",−58%
same,Percent Growth,"MDA-MB-435; MDA-MB-435, Log10 Concentration −5.0",38%
same,Percent Growth,"MDA-MB-435; MDA-MB-435, Log10 Concentration −6.0",94%
same,Percent Growth,"MDA-MB-435; MDA-MB-435, Log10 Concentration −7.0",94%
same,Percent Growth,"MDA-MB-435; MDA-MB-435, Log10 Concentration −8.0",97%
same,GI50,"UACC-257; Homo sapiens, UACC-257",4.59 µM
same,CC50,"UACC-257; Homo sapiens, UACC-257, read-out: LC50",53.7 µM
same,TGI,UACC-257; UACC-257,1.95E−5
same,Percent Growth,"UACC-257; UACC-257, Log10 Concentration −4.0",−81%
same,Percent Growth,"UACC-257; UACC-257, Log10 Concentration −5.0",33%
same,Percent Growth,"UACC-257; UACC-257, Log10 Concentration −6.0",83%
same,Percent Growth,"UACC-257; UACC-257, Log10 Concentration −7.0",92%
same,Percent Growth,"UACC-257; UACC-257, Log10 Concentration −8.0",97%
same,GI50,"UACC-62; Homo sapiens, UACC-62",6.29 µM
same,CC50,"UACC-62; Homo sapiens, UACC-62, read-out: LC50",49 µM
same,IC (TGI),"UACC-62; Homo sapiens, UACC-62, read-out: TGI",20.3 µM
same,Percent Growth,"UACC-62; UACC-62, Log10 Concentration −4.0",−90%
same,Percent Growth,"UACC-62; UACC-62, Log10 Concentration −5.0",40%
same,Percent Growth,"UACC-62; UACC-62, Log10 Concentration −6.0",89%
same,Percent Growth,"UACC-62; UACC-62, Log10 Concentration −7.0",92%
same,Percent Growth,"UACC-62; UACC-62, Log10 Concentration −8.0",100%
same,GI50,"SF-268; Homo sapiens, SF-268",16.2 µM
same,CC50,"SF-268; Homo sapiens, SF-268, read-out: LC50",71.7 µM
same,IC (TGI),"SF-268; Homo sapiens, SF-268, read-out: TGI",34 µM
same,Percent Growth,"SF-268; SF-268, Log10 Concentration −4.0",−72%
same,Percent Growth,"SF-268; SF-268, Log10 Concentration −5.0",82%
same,Percent Growth,"SF-268; SF-268, Log10 Concentration −6.0",102%
same,Percent Growth,"SF-268; SF-268, Log10 Concentration −7.0",109%
same,Percent Growth,"SF-268; SF-268, Log10 Concentration −8.0",106%
same,GI50,"SF-539; Homo sapiens, SF-539",5.77 µM
same,CC50,"SF-539; Homo sapiens, SF-539, read-out: LC50",43.2 µM
same,IC (TGI),"SF-539; Homo sapiens, SF-539, read-out: TGI",15.4 µM
same,Percent Growth,"SF-539; SF-539, Log10 Concentration −4.0",−99%
same,Percent Growth,"SF-539; SF-539, Log10 Concentration −5.0",36%
same,Percent Growth,"SF-539; SF-539, Log10 Concentration −6.0",96%
same,Percent Growth,"SF-539; SF-539, Log10 Concentration −7.0",97%
same,Percent Growth,"SF-539; SF-539, Log10 Concentration −8.0",103%
same,Percent Growth,"COLO 205; COLO 205, Log10 Concentration −4.0",−79%
same,Percent Growth,"COLO 205; COLO 205, Log10 Concentration −5.0",3%
same,Percent Growth,"COLO 205; COLO 205, Log10 Concentration −6.0",107%
same,Percent Growth,"COLO 205; COLO 205, Log10 Concentration −7.0",108%
same,Percent Growth,"COLO 205; COLO 205, Log10 Concentration −8.0",104%
same,GI50,"COLO 205; Homo sapiens, COLO 205",3.54 µM
same,CC50,"COLO 205; Homo sapiens, COLO 205, read-out: LC50",44.6 µM
same,IC (TGI),"COLO 205; Homo sapiens, COLO 205, read-out: TGI",11 µM
same,Percent Growth,"HCT-15; HCT-15, Log10 Concentration −4.0",−81%
same,Percent Growth,"HCT-15; HCT-15, Log10 Concentration −5.0",22%
same,Percent Growth,"HCT-15; HCT-15, Log10 Concentration −6.0",89%
same,Percent Growth,"HCT-15; HCT-15, Log10 Concentration −7.0",97%
same,Percent Growth,"HCT-15; HCT-15, Log10 Concentration −8.0",98%
same,GI50,"HCT-15; Homo sapiens, HCT-15",3.5 µM
same,CC50,"HCT-15; Homo sapiens, HCT-15, read-out: LC50",50.1 µM
same,IC (TGI),"HCT-15; Homo sapiens, HCT-15, read-out: TGI",15.4 µM
same,GI50,"KM12; Homo sapiens, KM12",16.5 µM
same,CC50,"KM12; Homo sapiens, KM12, read-out: LC50",62.2 µM
same,TGI,KM12; KM12,3.21E−5
same,Percent Growth,"KM12; KM12, Log10 Concentration −4.0",−86%
same,Percent Growth,"KM12; KM12, Log10 Concentration −5.0",88%
same,Percent Growth,"KM12; KM12, Log10 Concentration −6.0",103%
same,Percent Growth,"KM12; KM12, Log10 Concentration −7.0",107%
same,Percent Growth,"KM12; KM12, Log10 Concentration −8.0",105%
same,Percent Growth,"A498; A498, Log10 Concentration −4.0",−97%
same,Percent Growth,"A498; A498, Log10 Concentration −5.0",55%
same,Percent Growth,"A498; A498, Log10 Concentration −6.0",87%
same,Percent Growth,"A498; A498, Log10 Concentration −8.0",87%
same,GI50,"A498; Homo sapiens, A498",16.8 µM
same,CC50,"A498; Homo sapiens, A498, read-out: LC50",49.1 µM
same,IC (TGI),"A498; Homo sapiens, A498, read-out: TGI",25.1 µM
same,GI50,RXF 393; Homo sapiens,2.22 µM
same,GI50,"RXF 393; Homo sapiens, 5-dose assay",2.22 µM
same,CC50,"RXF 393; Homo sapiens, RXF 393, read-out: LC50",45 µM
same,IC (TGI),"RXF 393; Homo sapiens, RXF 393, read-out: TGI",15.5 µM
same,Percent Growth,RXF 393; Log10 Concentration −4.0,−77%
same,Percent Growth,RXF 393; Log10 Concentration −5.0,2%
same,Percent Growth,RXF 393; Log10 Concentration −6.0,76%
same,Percent Growth,RXF 393; Log10 Concentration −8.0,101%
same,GI50,"MDA-MB-468; Homo sapiens, MDA-MB-468",3.22 µM
same,CC50,"MDA-MB-468; Homo sapiens, MDA-MB-468, read-out: LC50",64.5 µM
same,IC (TGI),"MDA-MB-468; Homo sapiens, MDA-MB-468, read-out: TGI",16.4 µM
same,Percent Growth,"MDA-MB-468; MDA-MB-468, Log10 Concentration −4.0",−66%
same,Percent Growth,"MDA-MB-468; MDA-MB-468, Log10 Concentration −5.0",18%
same,Percent Growth,"MDA-MB-468; MDA-MB-468, Log10 Concentration −6.0",83%
same,Percent Growth,"MDA-MB-468; MDA-MB-468, Log10 Concentration −7.0",89%
same,Percent Growth,"MDA-MB-468; MDA-MB-468, Log10 Concentration −8.0",95%
same,GI50,"OVCAR-5; Homo sapiens, OVCAR-5",10.2 µM
same,CC50,"OVCAR-5; Homo sapiens, OVCAR-5, read-out: LC50",49.5 µM
same,IC (TGI),"OVCAR-5; Homo sapiens, OVCAR-5, read-out: TGI",22.5 µM
same,Percent Growth,"OVCAR-5; OVCAR-5, Log10 Concentration −4.0",−94%
same,Percent Growth,"OVCAR-5; OVCAR-5, Log10 Concentration −5.0",51%
same,Percent Growth,"OVCAR-5; OVCAR-5, Log10 Concentration −6.0",96%
same,Percent Growth,"OVCAR-5; OVCAR-5, Log10 Concentration −7.0",97%
same,Percent Growth,"OVCAR-5; OVCAR-5, Log10 Concentration −8.0",107%
same,GI50,"OVCAR-8; Homo sapiens, OVCAR-8",4.39 µM
same,CC50,"OVCAR-8; Homo sapiens, OVCAR-8, read-out: LC50",65.1 µM
same,IC (TGI),"OVCAR-8; Homo sapiens, OVCAR-8, read-out: TGI",18.5 µM
same,Percent Growth,"OVCAR-8; OVCAR-8, Log10 Concentration −4.0",−67%
same,Percent Growth,"OVCAR-8; OVCAR-8, Log10 Concentration −5.0",25%
same,Percent Growth,"OVCAR-8; OVCAR-8, Log10 Concentration −6.0",96%
same,Percent Growth,"OVCAR-8; OVCAR-8, Log10 Concentration −7.0",100%
same,Percent Growth,"OVCAR-8; OVCAR-8, Log10 Concentration −8.0",108%
same,Percent Growth,HOP-92; Log10 Concentration −4.0,−87%
same,Percent Growth,HOP-92; Log10 Concentration −5.0,12%
same,Percent Growth,HOP-92; Log10 Concentration −6.0,71%
same,Percent Growth,HOP-92; Log10 Concentration −7.0,66%
same,Percent Growth,HOP-92; Log10 Concentration −8.0,0.2%
same,GI50,HOP-92; Homo sapiens,2.25 µM
same,GI50,"HOP-92; Homo sapiens, 5-dose assay",2.25 µM
same,CC50,"HOP-92; Homo sapiens, HOP-92, read-out: LC50",42.2 µM
same,IC (TGI),"HOP-92; Homo sapiens, HOP-92, read-out: TGI",13.1 µM
same,GI50,NCI-H322M; Homo sapiens,22.5 µM
same,CC50,"NCI-H322M; Homo sapiens, read-out: LC50",> 100 µM
same,IC (TGI),"NCI-H322M; Homo sapiens, read-out: TGI",63.4 µM
same,Percent Growth,NCI-H322M; Log10 Concentration −4.0,−18%
same,Percent Growth,NCI-H322M; Log10 Concentration −5.0,87%
same,Percent Growth,NCI-H322M; Log10 Concentration −6.0,105%
same,Percent Growth,NCI-H322M; Log10 Concentration −7.0,103%
same,Percent Growth,NCI-H322M; Log10 Concentration −8.0,106%
